Values quoted from earlier work in patent US11110072B2, “Broad spectrum pharmacological composition for treatment of various infections and diseases and methods of use” (Greyfer Innova Pharma, LLC, priority 2013, dated 2021).

Columns and labels:
[1] = even at high concentrations
[2] = after oral administration

excreted unchanged in urine [2]: less than 1%
SMILES: O=C(O)CC(O)(CC(=O)O)C(=O)O [Citric acid, 2-hydroxytricarboxylic acid]
effect in contact with skin [1]: not injurious in contact with skin
